Results on 60 molecules are retold here after the METLIN SMRT retention time set (Domingo-Almenara et al. 2019).

The nature of this series: gradient 5% acetonitrile 3 min, to 50% in 2 min, to 85% in 15 min, held 3 min, 100 µL/min. The conditions noted are these: column: Zorbax Extend-C18 2.1 x 50 mm; eluents: water / acetonitrile, 0.1% formic acid. An outline of the steps: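 Retention times come from adduct peaks that were picked computationally and then checked by hand. The standards, pure and pooled in mixtures of ~100 molecules, were run on a Zorbax Extend-C18 column (2.1 × 50 mm, 1.8 μm) at 100 μL/min with water and acetonitrile, each with 0.1% formic acid. Detection was by quadrupole time-of-flight mass spectrometry in positive and negative ionization mode, with a dead volume of 40 μL and a dwell volume of 900 μL.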
Molecule `CCCC(=O)Nc1nc2ccc(CCC(=O)Nc3ccc(CC)cc3)cc2s1` registered an RP-LC retention time of 952 s.
The figure for `CN1c2cc(F)ccc2C(=O)NC12CCN(C(=O)c1ccc(Cl)cc1)CC2` is 785 s; for `CCN1C(=O)c2cc(NC(=O)c3ccc(Br)o3)ccc2Oc2ccccc21` it is 908 s; for `CCOc1ccc(NC(=O)C2CCCN(c3nnc4ccccn34)C2)cc1` (stereo not given) it is 674 s.
Under `COCCCN1CN=C(Nc2nc(C)c3cc(C)ccc3n2)NC1` stands 555 s; under `COc1ccc(/C=C/c2nn3c(COc4ccc(OC)cc4)nnc3s2)cc1`, 973 s; under `CCN(CC)c1ccc(-c2noc(CN3CCc4ccccc4C3)n2)cn1`, 718 s.
In turn, `COc1ccccc1N1CCN(C(=O)C2CC(=O)N(c3ccc4oc(C)nc4c3)C2)CC1` (stereo not given) came in with an RP-LC retention time of 693 s.
For `CCCc1cc(N2CCN(C(=O)c3ccc4c(c3)OCO4)CC2)nc2nnc(C)n12`, the RP-LC retention time was determined as 624 s.
The figure for `COCCCNS(=O)(=O)c1cc(-c2nc(C)cs2)n(CC(=O)N2CCCCC2)c1` is 824 s; for `COc1ccc(NC(=O)Cn2c(=O)n(-c3ccc(F)cc3)c(=O)c3c2cc(C)n3C)cc1OC` it is 739 s.
`CC(C)(C)c1ccc(-c2noc(Cn3c(=O)n(CCc4ccccc4)c(=O)c4sccc43)n2)cc1`: the RP-LC retention time was 1360 s.
Under `Cc1nnc(N2CCCC(C(=O)NCc3ccccc3Cl)C2)c2nn(-c3ccccc3)c(C)c12` (stereo not given) stands 759 s; under `Cc1ccc(N2C=C(C(=O)N3CCC(C)CC3)S(=O)(=O)c3ccccc32)cc1F`, 974 s; under `O=C(NCCc1ccc(Cl)cc1)C(=O)c1ccc[nH]1`, 878 s.
The figure for `CN(C)c1cccc(C(=O)NC2CCN(c3ccccc3)C2=O)c1` (stereo not given) is 667 s; for `O=C(NC1CCCCC1N1C(=O)CSC1=O)c1cc(-c2ccc(F)cc2)n[nH]1` (stereo not given) it is 762 s.
Under `CC(C)(C)c1csc(-c2csc(S(=O)(=O)NCCN3CCc4ccccc4C3)c2)n1` stands 846 s; under `O=C(Nc1nsc(-c2ccccc2)n1)c1cccs1`, 743 s; under `CCc1ccc(-c2nc(C3CC(=O)N(c4ccc(F)cc4)C3)no2)cc1` (stereo not given), 1110 s.
On to `CN(C(=O)Cc1ccccc1)[C@H](CN1CCCC1)c1ccccc1`, for which the RP-LC retention time stood at 726 s.
Under `COc1ccccc1CC(=O)Nc1cccn2c(C3CCC3)nnc12` stands 782 s; under `CC(C)Cn1cc(CCNC(=O)Nc2ccc(C(F)(F)F)cc2)c2cccnc21`, 970 s; under `CC(C)CCNS(=O)(=O)c1cc(-c2nc(C(C)(C)C)cs2)cs1`, 1310 s.
Under `COCCN1C(=O)c2ccccc2C(C(=O)NCc2ccccc2Cl)C12CCCC2` (stereo not given) stands 905 s.
The figure for `Cc1nc(C(=O)Nc2ccc(F)c(C)c2)c(C)o1` is 918 s.
Take `O=C1C(=O)N(Cc2ccc(C(=O)N3CCOCC3)cc2)CCN1Cc1ccc(F)cc1`: the RP-LC retention time turned out to be 652 s.
For the molecule `COc1cc(CN2CCC3(CCC3O)CC2)ccc1OC(C)C` (stereo not given), the RP-LC retention time came to 614 s.
The figure for `Cc1ccc(C(=O)Nc2ccc3c(c2)Sc2ncccc2C(=O)N3C(C)C)cc1C` is 997 s; for `CN1CCN(CC/C=C2/c3ccccc3Sc3ccc(S(=O)(=O)N(C)C)cc32)CC1` it is 752 s.
The figure for `COc1ncc(-c2ccc3nccc(-c4ccnnc4)c3c2)cc1NS(=O)(=O)c1ccc(F)cc1F` is 785 s; for `CC(NC(=O)c1ccc(NC(=O)C2CC2)cc1N1CCCCCC1)c1ccccn1` (stereo not given) it is 633 s; for `CCc1ccc(-c2cn3cc(C(=O)NC4CC4)ccc3n2)cc1` it is 655 s.
Regarding `Cc1nn(C(C)C(=O)NCCN(C)C)c(=O)c2nn(-c3ccccc3)c(C)c12` (stereo not given), the RP-LC retention time is 601 s.
Under `CC(C)=CC1C(C(=O)O)C1(C)C` (stereo not given) stands 808 s; under `COc1ccc(NC(=O)CSc2nc3ccccc3o2)c(OC)c1`, 896 s; under `COCCN1C(=O)c2ccccc2C(C(=O)NCc2cccc(F)c2)C12CCCC2` (stereo not given), 866 s.
`COc1ccc(S(=O)(=O)N2CCCC(C(=O)Nc3ccc(F)cc3)C2)cc1OC` (stereo not given): the RP-LC retention time turned out to be 831 s.
Under `O=C1NCCCCCCN(Cc2ccc(F)cc2F)[C@H]2CCC[C@@H]12` stands 646 s; under `COC(=O)c1ccc(NC(=O)C(=O)NC(C)Cc2cccs2)cc1` (stereo not given), 900 s; under `Cn1nc(C(=O)N2C[C@@H](Oc3ccccc3)C[C@H]2C(=O)NC2CC2)c2ccccc21`, 802 s.
Under `Cc1cccc2nnc(N3CCCC(C(=O)NC4CCCC4)C3)n12` (stereo not given) stands 597 s.
Under `Cc1ccsc1C(=O)N1CCc2nn(C)c(=O)n2CC1` stands 610 s.
Molecule `COc1ccc(Cl)cc1NC(=O)CN1CCN(c2ccccc2F)CC1` gave an RP-LC retention time of 709 s.
As for `O=C(CSc1nc2ccccc2[nH]1)Nc1nccs1`, the RP-LC retention time is 613 s.
The figure for `CS(=O)(=O)N1CCC(C(=O)NCCc2csc(-c3cccs3)n2)CC1` is 695 s; for `CCc1ccc(S(=O)(=O)NCC(c2cccs2)N2CCOCC2)s1` (stereo not given) it is 644 s.
Under `CCc1noc(C2(NC(=O)c3ccc(F)c(Cl)c3)CCCCC2)n1` stands 1030 s; under `Cc1cccc(-c2noc(C3CCCN3C(=O)c3cccc(Cl)c3)n2)c1` (stereo not given), 1140 s; under `O=C(NCc1ccccc1)Nc1cccc(-c2ccc(N3CCOCC3)nn2)c1`, 672 s.
The figure for `COc1ccc(C(=O)N2C[C@H](c3nc(-c4ccccc4)no3)[C@@H](C)C2)cc1` is 984 s.
In turn, `CCc1noc(NC(C)=O)c1-c1ccc(OC)c(S(=O)(=O)Nc2ccc(C)c(Cl)c2)c1` displayed an RP-LC retention time of 1300 s.
Under `Cc1cc(N2CCN(S(=O)(=O)c3cc(F)ccc3F)CC2)nc(N2CCCCC2)n1` stands 769 s.
Under `CC1CCN(c2ccc(CNc3nc4ccncc4n(C(C)C)c3=O)cc2)CC1` stands 574 s.
Turning to `O=C(c1cc(F)ccc1F)N1CCN(C(=O)c2nnn3c2COC(c2ccccc2)C3)CC1` (stereo not given), the RP-LC retention time was found to be 817 s.
Under `Cc1nnc(-c2ccc3c(c2)OCO3)o1` stands 706 s.
The figure for `O=C(Nc1cnc2ccccc2c1)c1cccc([N+](=O)[O-])c1` is 717 s.
Under `COCCN1C(=O)CCc2cc(NC(=O)C3CCC3)ccc21` stands 673 s.
Molecule `COc1ccc2[nH]c3c(c2c1)CCNC3c1ccc(F)cc1` (stereo not given) gave an RP-LC retention time of 623 s.
Under `CC1=C(c2ccccc2)S(=O)(=O)N=C1N1CCCN(C(=O)c2ccsc2)CC1` stands 571 s.
